Some test systems named below: SF-268 CNS; SN12C renal; SNB-75 CNS; HCT-15 colon; OVCAR-4 ovarian; SK-MEL-5 melanoma; MOLT-4 leukemia; M14 melanoma; UACC-257 melanoma; HT29 colon.
Assay in all cases: NCI tumour cell line growth inhibition, 48 h

“And” between values parts separate entries of the source, which are not always exact repeats. Equal values may be shown once.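 The compound was tested at five concentrations on cells cultured in 96-well plates, with a 48-hour exposure period. GI50 = concentration required for 50% inhibition of growth. TGI denotes the concentration required for complete inhibition of growth.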

Results on nine compounds are retold here after PubChem BioAssay (NCI).

`COc1ccc2c(c1)c[n+](C)c1c3cc(OC)c(OC)cc3ccc21`: the TGI is 9.9 µM in the test with SF-268 CNS; 3.53 µM and 8.51 µM with SN12C renal; 20 µM with SNB-75 CNS; 30 µM and > 74.1 µM in the test with HCT-15 colon; 20.4 µM in the test on OVCAR-4 ovarian; 15.1 µM and 20.2 µM with SK-MEL-5 melanoma. Besides, the TGI in the test with MOLT-4 leukemia is 3.81 µM and 17.9 µM; in the test with M14 melanoma it was 3.05 µM and 14.3 µM; with UACC-257 melanoma, 4.36 µM and 30.8 µM; in the test with HT29 colon, 2.31 µM and 15.5 µM. Besides, the GI50 in the test with SNB-75 CNS is 6.66 µM; in the test with OVCAR-4 ovarian it was 5.48 µM; in the test with SK-MEL-5 melanoma it was 4.08 µM and 8.31 µM; in the test on MOLT-4 leukemia it was 0.358 µM and 1.7 µM; with M14 melanoma, 1.41 µM and 4.48 µM; in the test on UACC-257 melanoma, 1.8 µM and 13.5 µM. In the test on HT29 colon, the GI50 was 1.01 µM and 3.61 µM.
`CN(C)CCC(=O)C(=Cc1ccc(O)cc1)C(=O)CCN(C)C`: the GI50 in the test with SF-268 CNS is more than 100 µM; in the test with SN12C renal, more than 100 µM; in the test with SNB-75 CNS, more than 100 µM; in the test on HCT-15 colon, 52.5 µM; with OVCAR-4 ovarian, 26.2 µM; in the test on SK-MEL-5 melanoma it was more than 100 µM. Further, the GI50 with MOLT-4 leukemia was 80 µM; with M14 melanoma it was more than 100 µM; in the test with UACC-257 melanoma, more than 100 µM; with HT29 colon, 34.4 µM. Further, the TGI in the test with SF-268 CNS, in the test with SN12C renal, in the test on SNB-75 CNS, in the test on HCT-15 colon, in the test with OVCAR-4 ovarian and in the test on SK-MEL-5 melanoma was more than 100 µM in each case. Also, the TGI with MOLT-4 leukemia, in the test with M14 melanoma, with UACC-257 melanoma and in the test with HT29 colon was more than 100 µM each time.
As for `CSc1ccccc1C#C/C=C\C#Cc1ccccc1N`, the GI50 with SF-268 CNS is 3.3 µM; in the test on SN12C renal, 8.93 µM; with SNB-75 CNS, 36.3 µM; in the test on HCT-15 colon, 6.65 µM; in the test on OVCAR-4 ovarian, 29.9 µM; with SK-MEL-5 melanoma, 3.71 µM. The GI50 with MOLT-4 leukemia is 8.04 µM; in the test on M14 melanoma it was 5.85 µM; in the test with UACC-257 melanoma, 43.5 µM; in the test with HT29 colon it was 25.1 µM. The TGI turned out to be 25.4 µM in the test on SF-268 CNS; 27.7 µM with SN12C renal; 81 µM in the test with SNB-75 CNS; 32.5 µM in the test on HCT-15 colon; 71 µM in the test with OVCAR-4 ovarian; 16.4 µM in the test on SK-MEL-5 melanoma. Further, the TGI is more than 100 µM in the test with MOLT-4 leukemia, 20.1 µM in the test with M14 melanoma, more than 100 µM with UACC-257 melanoma and 54.8 µM in the test on HT29 colon.
In the case of `Cc1cc2cc3c(=O)[nH]c(=O)[nH]c3nc2cc1C`, the TGI in the test with SF-268 CNS is more than 100 µM; in the test on SN12C renal, more than 100 µM; in the test on SNB-75 CNS, 90 µM; in the test on HCT-15 colon it was more than 100 µM; in the test on OVCAR-4 ovarian, more than 100 µM; in the test on SK-MEL-5 melanoma, more than 100 µM. Besides, the TGI with MOLT-4 leukemia, with M14 melanoma, with UACC-257 melanoma and with HT29 colon was more than 100 µM throughout.
With `COC12C(COC(N)=O)C3=C(C(=O)C(C)=C(N)C3=O)N1CC1C2N1C` (configuration not stated), the TGI in the test on SF-268 CNS amounted to 47 µM; in the test with SN12C renal it was 29.5 µM; in the test on SNB-75 CNS, 11.8 µM; in the test with HCT-15 colon, 55.1 µM; with OVCAR-4 ovarian, 28.1 µM; in the test with SK-MEL-5 melanoma, 9.19 µM. Also, the TGI in the test with MOLT-4 leukemia was 18.6 µM; in the test with M14 melanoma, 22.7 µM; in the test on UACC-257 melanoma, 35.6 µM; in the test on HT29 colon it was 43.2 µM.
Take `CC(=O)N1CCC(=O)/C(=C/c2ccccc2)C1`: the TGI with SF-268 CNS was 62.6 µM; in the test on SN12C renal, 37.6 µM; with SNB-75 CNS it was more than 100 µM; in the test on HCT-15 colon, 48.2 µM; with OVCAR-4 ovarian it was 37.8 µM; in the test on SK-MEL-5 melanoma it was more than 100 µM. Moreover, the TGI with MOLT-4 leukemia was more than 100 µM; in the test with M14 melanoma, more than 100 µM; with UACC-257 melanoma it was more than 100 µM; in the test with HT29 colon, 38.8 µM.
Regarding `CSc1nc(NC2OC(COC(C)=O)C(OC(C)=O)C(OC(C)=O)C2OC(C)=O)c(N=CC=Nc2c(NC3OC(COC(C)=O)C(OC(C)=O)C(OC(C)=O)C3OC(C)=O)nc(SC)n(C)c2=O)c(=O)n1C` (configuration not stated), the GI50 was more than 50 µM in the test with SF-268 CNS; more than 50 µM in the test on SN12C renal; 8.97 µM in the test with SNB-75 CNS; more than 50 µM in the test on HCT-15 colon; more than 50 µM in the test with OVCAR-4 ovarian; more than 50 µM in the test on SK-MEL-5 melanoma. For the same compound, the GI50 with MOLT-4 leukemia, in the test on M14 melanoma, with UACC-257 melanoma and in the test with HT29 colon was more than 50 µM in each case. Also, the TGI was more than 100 µM in the test on SF-268 CNS; more than 100 µM with SN12C renal; 25.4 µM and 24.3 µM in the test with SNB-75 CNS; more than 100 µM with HCT-15 colon; more than 100 µM in the test with OVCAR-4 ovarian; more than 100 µM in the test on SK-MEL-5 melanoma. The TGI in the test with MOLT-4 leukemia was more than 100 µM; in the test on M14 melanoma it was more than 50 µM; in the test with UACC-257 melanoma, more than 100 µM; in the test on HT29 colon, more than 100 µM.
With `O=C(Nc1cc(C(F)(F)F)ccc1Cl)c1cccc(NC2=C(Cl)C(=O)N(Cc3ccccc3)C2=O)c1`, the GI50 in the test on SF-268 CNS was 29.2 µM; with SN12C renal, 32.1 µM; with SNB-75 CNS it was more than 100 µM; with HCT-15 colon it was 23.5 µM; in the test on OVCAR-4 ovarian, more than 100 µM; with SK-MEL-5 melanoma, 12.8 µM. Further, the GI50 with MOLT-4 leukemia was 2.19 µM; in the test on M14 melanoma, 82.6 µM; in the test with UACC-257 melanoma it was 53.7 µM; with HT29 colon, 43.1 µM. For the same compound, the TGI in the test on SF-268 CNS, in the test on SN12C renal, in the test on SNB-75 CNS, in the test with HCT-15 colon, in the test with OVCAR-4 ovarian and in the test with SK-MEL-5 melanoma was more than 100 µM in each case. The TGI in the test on MOLT-4 leukemia, in the test on M14 melanoma, with UACC-257 melanoma and in the test with HT29 colon was more than 100 µM each time.
Take `CCOC(=O)c1c(-c2ccc(OC)cc2)c(C#N)c2c(C#N)c(N)nn2c1N`: the GI50 with SF-268 CNS was 5.39 µM; in the test with SN12C renal, 4 µM; with SNB-75 CNS it was 1.84 µM; with HCT-15 colon it was 2.95 µM; with OVCAR-4 ovarian it was 6.11 µM; with SK-MEL-5 melanoma, 1.78 µM. For the same compound, the GI50 in the test on MOLT-4 leukemia was 4.07 µM; with M14 melanoma, 3.26 µM; in the test on UACC-257 melanoma, 8.18 µM; with HT29 colon, 3.98 µM. The TGI in the test with SF-268 CNS was 73.7 µM; in the test with SN12C renal it was 49 µM; in the test on SNB-75 CNS it was 7.59 µM; in the test on HCT-15 colon, more than 100 µM; with OVCAR-4 ovarian, 96.7 µM; in the test with SK-MEL-5 melanoma, 4.41 µM. Further, the TGI with MOLT-4 leukemia was more than 100 µM; in the test on M14 melanoma it was 25.9 µM; with UACC-257 melanoma it was more than 100 µM; in the test with HT29 colon, more than 100 µM.
